Measurements as given in paper PMC10096344 (Molecules, 2023).

System: C57BL/6 mice
Assay type: in vivo
Procedure: All animals were closely observed every day for three weeks. The body weight and toxic effects were monitored and the survival rate was calculated. At the end of experiment, the survival mice were euthanized; vital organs, including heart, liver, lung, kidney and spleen, were then excised, weighed and preserved for histopathological observation.

For `N#CC1=C(N)Oc2c(c(=O)oc3ccccc23)C1c1cc(C(F)(F)F)cc(C(F)(F)F)c1` (stereo not drawn) [LP4C], the “survival rate vs Control” value (20 mg/kg to 320 mg/kg intragastric, three weeks) was “not a significant difference in the survival rate”, the “death and toxicity signs” value (20, 40 and 80 mg/kg intragastric, three-week period) was “no death and obvious toxicity sign was observed” and the “histopathological changes (H&E) of heart, liver, lung, kidney and spleen” value (intragastric, vs control groups) was “no obvious pathological change was observed, except the slight hemorrhagic phenomena that occurred in the liver section in the 320 mg/kg LP4C Treatment Group”.
